Patent publication US8962529B2, “Substituted picolinic acids, salts and acid derivatives thereof, and use thereof as herbicides” (Bayer Cropscience AG, priority 2010, dated 2015)

Tests used:
Type in all cases: in vivo
Veronica persica [1] = assay: Pre-emergence herbicidal action against weed plants (greenhouse pot test); details: application rate 320 g/ha, scored visually after 3 weeks vs untreated controls, 100% = plants have died, 0% = like control plants
Description: (§1) Seeds of mono- and dicotyledonous weed and crop plants are set out in wood fiber pots in sandy loam soil and covered with soil. The inventive compounds formulated in the form of wettable powders (WP) or as emulsion concentrates (EC) are then applied to the surface of the covering earth as an aqueous suspension or emulsion at a water application rate of 600 to 800 l/ha (converted) with addition of 0.2% wetting agent. After the treatment, the pots are placed in a greenhouse and kept under good growth conditions for the test plants. The damage to the test plants is scored visually after an experiment time of 3 weeks in comparison to untreated controls (herbicidal action in percent (%): 100% action=plants have died, 0% action=like control plants).

Veronica persica [2] = assay: Post-emergence herbicidal action against weed plants (greenhouse pot test); details: one-leaf stage, application rate 320 g/ha, scored visually after about 3 weeks vs untreated controls, 100% = plants have died
Description: (§2) Seeds of mono- and dicotyledonous weed and crop plants are set out in wood fiber pots in sandy loam soil, covered with soil and cultivated in a greenhouse under good growth conditions. 2 to 3 weeks after sowing, the trial plants are treated at the one-leaf stage. The inventive compounds formulated in the form of wettable powders (WP) or as emulsion concentrates (EC) are then sprayed onto the green plant parts as an aqueous suspension or emulsion with a water application rate of 600 to 800 l/ha (converted) with addition of 0.2% wetting agent. After the trial plants have stood in the greenhouse under optimal growth conditions for about 3 weeks, the action of the preparations is scored visually in comparison to untreated controls (herbicidal action in percent (%): 100% action=plants have died, 0% action=like control plants).

ABUTH = assay: as above; details: one-leaf stage, application rate 320 g/ha, scored visually after about 3 weeks vs untreated controls, 100% = plants have died
Description: as §2

Amaranthus retroflexus = assay: Pre-emergence herbicidal action against weed plants (greenhouse pot test); details: application rate 320 g/ha, scored visually after 3 weeks vs untreated controls, 100% = plants have died, 0% = like control plants
Description: as §1

Ipomoea purpurea = assay: Post-emergence herbicidal action against weed plants (greenhouse pot test); details: one-leaf stage, application rate 320 g/ha, scored visually after about 3 weeks vs untreated controls, 100% = plants have died
Description: as §2

Structure (SMILES)	herbicidal action in percent, VERPE (Veronica persica [1])	herbicidal action in percent, VERPE (Veronica persica [2])	herbicidal action in percent, ABUTH (ABUTH)	herbicidal action in percent, AMARE (Amaranthus retroflexus)	herbicidal action in percent, PHBPU (Ipomoea purpurea)
COC(=O)c1nc(-c2ccc(Cl)c(C3CO3)c2F)cc(N)c1Cl (centres unmarked) [Example 9-618]	100%	90%	80%	–	–
COC(=O)c1nc(-c2ccc(Cl)c(C3COC(C)(C)O3)c2F)cc(N)c1Cl (centres unmarked) [Example 9-842]	100%	100%	80%	90%	90%
